Five molecules from US4440934A, “5-(4-Hydroxyphenyl) hydantoin derivatives” (Pacific Chemical Ind. Co., Ltd., priority 1981, dated 1984) can be followed below.

Structures are written as SMILES. Values after ≈ are worked out from the molar mass of the structure shown.

Format in all cases: cell-based
One experiment has as its system Escherichia coli. The experiment is described as follows: MIC against bacteria (serial dilution in nutrient broth). Conditions: 37 C., 48 hrs. On the procedure: (§1) In order to assay the effectiveness of the compounds of the present invention, the MIC(minimum inhibitory concentration) on bacteria, yeast and fungi were determined.
(§2) Minimum inhibitory concentrations were determined according to following procedure.
(§3) For the bacteriostatic activity, the said invention compounds were serially diluted with 10 ml of sterile nutrient broth. Each tube was inoculated with 1 drop of an aqueous suspension of the various test organisms containing approximately 1×10^6 organisms/ml and incubated at 37 C. for 48 hrs. After incubation, the IMC of the said invention compounds were determined as the lowest concentration of compound in which no microscopic evidence of growth was observed. The compounds and the MIC value against bacteria of the compounds can be seen from the following table 1.

A further experiment concerns Pseudomonas aeruginosa. The description is as above. Conditions: 37 C., 48 hrs. The method, then: as §1, §2, §3
The subject of the next experiment is Bacillus subtilis. Described as above. Conditions: 37 C., 48 hrs. The method, then:
as §1, §2, §3

The test system of a further experiment is Staphylococcus aureus. The experiment is described as above. Conditions: 37 C., 48 hrs. The method, then: as §1, §2, §3
Experiment [1] concerns micro-organisms, including bacteria, yeast and molds. The experiment is described as follows: antimicrobial activity, bacteria, yeast and molds. Conditions: comparison of table 2 with table 1. On the procedure: as §1, §2, §3
(§4) For the evaluation of fungistatic activity, each compound was serially diluted in test tubes to give the desired concentration when mixed with 20 ml of steriled molten sabouraud dextrose agar, and poured into sterile petri dishes.
(§5) After the medium was solidified, the spore-suspension of the each test organisms were inoculated by streaking and incubated at 25 C. for 7 days.
(§6) The minimum concentration of the compound effective for inhibiting the growth is determined by examining the growth of the each organism.

The subject of the next experiment is Fusarium solani. As to the kind of experiment: MIC for molds (sabouraud dextrose agar). Conditions: 168 h, 25 C., 7 days, read-out: MIC for molds and yeast. On the procedure: as §1, §4, §5, §6
(§7) In the above mentioned method the MIC for yeast and molds of the compounds A,B,C,D and E were obtained and can be seen from the table 2.

A further experiment has as its system Tricoderma virid. The experiment is described as follows: MIC for molds (sabouraud dextrose agar). Conditions: 168 h, 25 C., 7 days, read-out: MIC for molds and yeast. The method, then:
as §1, §4, §5, §6, §7

For a further experiment, the system named is Aspergillus flavus. As to the kind of experiment: MIC for molds (sabouraud dextrose agar). Conditions: 168 h, 25 C., 7 days, read-out: MIC for molds and yeast. On the procedure:
as §1, §4, §5, §6, §7

Another experiment concerns Aspergillus niger. The experiment is described as follows: MIC for molds (sabouraud dextrose agar). Conditions: 168 h, 25 C., 7 days, read-out: MIC for molds and yeast. On the procedure: as §1, §4, §5, §6, §7
The test system of the next experiment is bacteria. As to the kind of experiment: MIC against bacteria, summary over the test bacteria. Conditions: for MIC: 48 h, four bacteria of table 1, read-out: MIC value (range over the test bacteria). On the procedure: as §1, §2, §3
The subject of the next experiment is Candida albicans. The experiment is described as follows: MIC for yeast (sabouraud dextrose agar). Conditions: 168 h, 25 C., 7 days, read-out: MIC for molds and yeast. The method, then: as §1, §4, §5, §6, §7
The next experiment deals with molds and yeast. As to the kind of experiment: fungistatic activity, summary over molds and yeast. Conditions: from table 2. On the procedure:
as §1, §4, §5, §6, §7

In general, MIC refers to the lowest concentration that inhibits growth of the organism. Regarding `O=C1NC(c2ccc(O)cc2)C(=O)N1CO` (centres unmarked) [A, 5-(4-hydroxyphenyl)-3-hydroxymethylhydantoin], the MIC is 100 µg/mL (≈ 0.45 mM) in the experiment with Escherichia coli; 200 µg/mL (≈ 0.9 mM) against Pseudomonas aeruginosa; 300 µg/mL (≈ 1.35 mM) in the experiment on Bacillus subtilis; 200 µg/mL (≈ 0.9 mM) in the experiment on Staphylococcus aureus; 1500 µg/mL (≈ 6.75 mM) in the experiment with Fusarium solani; 1000 µg/mL (≈ 4.5 mM) with Tricoderma virid. Further, the MIC in the experiment with Aspergillus flavus was 3000 µg/mL (≈ 13.5 mM); in the experiment on Aspergillus niger, 2000 µg/mL (≈ 9 mM); in the experiment with bacteria it was 100 to 300 µg/mL (≈ 0.45 to 1.35 mM); with Candida albicans it was 4000 µg/mL (≈ 18 mM). Further, the “activity against bacteria compared with fungi and yeast” value in experiment [1] was “by far stronger activities against bacteria than fungi and yeast”. Besides, the “strength relative to compound C and D (times as strong)” value with bacteria (from MIC values of table 1) is “about 10 times”. In the experiment with molds and yeast, the “fungistatic activity compared with the compounds C and D” value is “stronger fungistatic activities than the compounds C and D”.

Regarding `O=C1C(c2ccc(O)cc2)N(CO)C(=O)N1CO` (centres unmarked) [B, 5-(4-hydroxyphenyl)-1,3-bis (hydroxymethyl)hydantoin], the MIC in the experiment with Escherichia coli was 100 µg/mL (≈ 0.396 mM); in the experiment with Pseudomonas aeruginosa, 100 µg/mL (≈ 0.396 mM); against Bacillus subtilis, 200 µg/mL (≈ 0.793 mM); against Staphylococcus aureus, 100 µg/mL (≈ 0.396 mM); in the experiment on Fusarium solani, 1000 µg/mL (≈ 3.96 mM); in the experiment on Tricoderma virid, 1000 µg/mL (≈ 3.96 mM). In addition, the MIC with Aspergillus flavus was 2000 µg/mL (≈ 7.93 mM); in the experiment on Aspergillus niger it was 1000 µg/mL (≈ 3.96 mM); in the experiment on bacteria, 100 to 200 µg/mL (≈ 0.396 to 0.793 mM); with Candida albicans it was 2000 µg/mL (≈ 7.93 mM). Also, in [1], the “activity against bacteria compared with fungi and yeast” value was “by far stronger activities against bacteria than fungi and yeast”. The “fungistatic activity compared with the compounds C and D” value in the experiment with molds and yeast was “stronger fungistatic activities than the compounds C and D”.

Turning to `CC(O)N1C(=O)C(c2ccc(O)cc2)N(C(C)O)C1=O` (centres unmarked) [C, 5-(4-hydroxyphenyl)-1,3-bis (1-hydroxyethyl)hydantoin], the MIC with Escherichia coli was found to be 700 µg/mL (≈ 2.5 mM); against Pseudomonas aeruginosa, 1200 µg/mL (≈ 4.28 mM); against Bacillus subtilis, 1000 µg/mL (≈ 3.57 mM); against Staphylococcus aureus, 700 µg/mL (≈ 2.5 mM); in the experiment on Fusarium solani, 3000 µg/mL (≈ 10.7 mM); in the experiment with Tricoderma virid, 3000 µg/mL (≈ 10.7 mM). The MIC is 5000 µg/mL (≈ 17.8 mM) in the experiment with Aspergillus flavus, 4000 µg/mL (≈ 14.3 mM) in the experiment with Aspergillus niger, 700 to 1500 µg/mL (≈ 2.5 to 5.35 mM) in the experiment with bacteria and 5000 µg/mL (≈ 17.8 mM) in the experiment on Candida albicans. Besides, in experiment [1], the “activity against bacteria compared with fungi and yeast” value was “by far stronger activities against bacteria than fungi and yeast”.

Turning to `CCC(O)N1C(=O)C(c2ccc(O)cc2)N(C(O)CC)C1=O` (centres unmarked) [D, 5-(4-hydroxyphenyl)-1,3-bis (1-hydroxypropyl)hydantoin], the MIC against Escherichia coli amounted to 900 µg/mL (≈ 2.92 mM); in the experiment on Pseudomonas aeruginosa it was 1500 µg/mL (≈ 4.86 mM); against Bacillus subtilis it was 1200 µg/mL (≈ 3.89 mM); in the experiment on Staphylococcus aureus, 1000 µg/mL (≈ 3.24 mM); in the experiment with Fusarium solani it was 3000 µg/mL (≈ 9.73 mM); with Tricoderma virid, 2000 µg/mL (≈ 6.49 mM). Also, the MIC with Aspergillus flavus was 5000 µg/mL (≈ 16.2 mM); with Aspergillus niger it was 3000 µg/mL (≈ 9.73 mM); in the experiment with bacteria, 700 to 1500 µg/mL (≈ 2.27 to 4.86 mM); in the experiment with Candida albicans it was 5000 µg/mL (≈ 16.2 mM). Also, the “activity against bacteria compared with fungi and yeast” value in experiment [1] was “by far stronger activities against bacteria than fungi and yeast”.

For `O=C1NC(c2ccc(O)c(Cl)c2)C(=O)N1CO` (centres unmarked) [E, 5-(3-Chloro-4-hydroxyphenyl)-3-hydroxymethylhydantoin], the MIC in the experiment on Escherichia coli worked out at 100 µg/mL (≈ 0.39 mM); in the experiment on Pseudomonas aeruginosa it was 100 µg/mL (≈ 0.39 mM); in the experiment on Bacillus subtilis it was 500 µg/mL (≈ 1.95 mM); against Staphylococcus aureus, 100 µg/mL (≈ 0.39 mM); in the experiment with Fusarium solani it was 1000 µg/mL (≈ 3.9 mM); in the experiment with Tricoderma virid, 1000 µg/mL (≈ 3.9 mM). Moreover, the MIC is 2000 µg/mL (≈ 7.79 mM) with Aspergillus flavus, 2000 µg/mL (≈ 7.79 mM) in the experiment on Aspergillus niger, 100 to 500 µg/mL (≈ 0.39 to 1.95 mM) with bacteria and 2000 µg/mL (≈ 7.79 mM) in the experiment with Candida albicans. In addition, the “activity against bacteria compared with fungi and yeast” value in experiment [1] is “by far stronger activities against bacteria than fungi and yeast”. The “fungistatic activity compared with the compounds C and D” value in the experiment on molds and yeast is “stronger fungistatic activities than the compounds C and D”.
